Measured values reported in patent publication US12473278B2 (Industry—University Cooperation Foundation Hangyang …, priority 2019, dated 2025).
Like-named read-outs stand apart in the source and are kept apart here.

What was measured:
FLT3 [1] = biological target: T1, FLT3 (Homo sapiens (Human), UniProt P36888); assay: Measurement of FLT3 enzyme activity; format: biochemical
Text: Measurement of FLT3 Enzyme Activity
A change in FLT3 enzyme activity by treatment with the benzimidazole derivatives of the following Table 1 according to the present invention was confirmed by IC50.

ABL1 = ABL1 (Homo sapiens (Human), UniProt P00519); assay: Kinase panel screening; format: biochemical; details: read-out: % inhibition rate
CDK2/cyclin E = CDK2/cyclin E (Homo sapiens (Human), UniProt P24941); assay: Kinase panel screening; format: biochemical; details: read-out: % inhibition rate
FMS = FMS (Homo sapiens (Human), UniProt P07333); assay: Kinase panel screening; format: biochemical; details: read-out: % inhibition rate
GSK3b = GSK3b (Homo sapiens (Human), UniProt P49841); assay: Kinase panel screening; format: biochemical; details: read-out: % inhibition rate
KDR/VEGFR2 = KDR/VEGFR2 (Homo sapiens (Human), UniProt P35968); assay: Kinase panel screening; format: biochemical; details: read-out: % inhibition rate
LCK = LCK (Homo sapiens (Human), UniProt P06239); assay: Kinase panel screening; format: biochemical; details: read-out: % inhibition rate
MTOR/FRAP1 = MTOR/FRAP1 (Homo sapiens (Human), UniProt P42345); assay: Kinase panel screening; format: biochemical; details: read-out: % inhibition rate
PLK1 = PLK1 (Homo sapiens (Human), UniProt P53350); assay: Kinase panel screening; format: biochemical; details: read-out: % inhibition rate
SYK = SYK (Homo sapiens (Human), UniProt P43405); assay: Kinase panel screening; format: biochemical; details: single dose of 10 μM, read-out: % inhibition rate
AKT1 = AKT1 (Homo sapiens (Human), UniProt P31749); assay: Kinase panel screening; details: read-out: % inhibition rate
Text: (§1) Measurement of Inhibitory Activity Against Various Protein Kinases

ALK = ALK (Homo sapiens (Human), UniProt Q9UM73); assay: Kinase panel screening; details: read-out: % inhibition rate
Sequence of ALK (Q9UM73 19-1620, species assumed): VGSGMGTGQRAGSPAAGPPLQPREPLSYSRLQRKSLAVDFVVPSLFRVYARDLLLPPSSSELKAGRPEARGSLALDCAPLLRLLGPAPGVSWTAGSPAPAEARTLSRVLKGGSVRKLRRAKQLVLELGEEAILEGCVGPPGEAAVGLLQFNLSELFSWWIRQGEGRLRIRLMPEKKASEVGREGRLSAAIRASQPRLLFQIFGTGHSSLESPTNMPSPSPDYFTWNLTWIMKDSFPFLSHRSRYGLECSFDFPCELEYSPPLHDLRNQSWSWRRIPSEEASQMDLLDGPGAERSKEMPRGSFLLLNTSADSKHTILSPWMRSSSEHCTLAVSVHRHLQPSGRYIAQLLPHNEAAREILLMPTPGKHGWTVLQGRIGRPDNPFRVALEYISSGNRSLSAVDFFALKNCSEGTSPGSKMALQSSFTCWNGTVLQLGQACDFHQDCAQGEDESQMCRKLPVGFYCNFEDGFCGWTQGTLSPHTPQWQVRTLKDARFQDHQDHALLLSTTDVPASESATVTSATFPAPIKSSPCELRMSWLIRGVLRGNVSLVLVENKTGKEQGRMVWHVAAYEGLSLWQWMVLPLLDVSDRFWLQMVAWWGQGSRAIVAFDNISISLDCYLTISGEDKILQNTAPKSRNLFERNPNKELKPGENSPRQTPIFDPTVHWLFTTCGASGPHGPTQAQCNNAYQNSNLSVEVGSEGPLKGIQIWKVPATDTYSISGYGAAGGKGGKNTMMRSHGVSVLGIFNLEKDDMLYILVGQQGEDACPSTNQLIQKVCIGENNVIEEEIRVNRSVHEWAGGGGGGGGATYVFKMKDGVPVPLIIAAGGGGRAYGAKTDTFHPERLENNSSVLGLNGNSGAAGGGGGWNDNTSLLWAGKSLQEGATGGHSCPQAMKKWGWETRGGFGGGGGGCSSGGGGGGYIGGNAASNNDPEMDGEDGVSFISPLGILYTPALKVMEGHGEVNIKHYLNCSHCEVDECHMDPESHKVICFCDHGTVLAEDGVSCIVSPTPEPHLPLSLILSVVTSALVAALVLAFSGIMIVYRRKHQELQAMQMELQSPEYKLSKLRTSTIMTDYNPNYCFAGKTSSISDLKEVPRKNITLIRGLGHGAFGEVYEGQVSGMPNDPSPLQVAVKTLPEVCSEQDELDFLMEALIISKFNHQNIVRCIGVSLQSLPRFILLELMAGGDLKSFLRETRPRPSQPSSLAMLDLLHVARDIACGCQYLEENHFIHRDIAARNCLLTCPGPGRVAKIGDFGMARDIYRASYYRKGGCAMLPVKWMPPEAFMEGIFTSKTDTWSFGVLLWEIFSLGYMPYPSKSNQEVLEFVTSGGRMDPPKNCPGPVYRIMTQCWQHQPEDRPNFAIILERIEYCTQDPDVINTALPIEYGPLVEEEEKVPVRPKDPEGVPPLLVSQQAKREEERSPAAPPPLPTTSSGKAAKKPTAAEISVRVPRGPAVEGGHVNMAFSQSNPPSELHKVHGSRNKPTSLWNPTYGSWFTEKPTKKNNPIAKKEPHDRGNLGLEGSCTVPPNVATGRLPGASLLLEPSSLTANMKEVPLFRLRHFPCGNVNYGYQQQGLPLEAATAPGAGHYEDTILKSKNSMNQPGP
Text: as §1

Aurora A = Aurora A (Homo sapiens (Human), UniProt O14965); assay: Kinase panel screening; details: read-out: % inhibition rate
Text: as §1

BRAF = BRAF (Homo sapiens (Human), UniProt P15056); assay: Kinase panel screening; details: read-out: % inhibition rate
Text: as §1

BRAF (V599E) = BRAF (V599E) (Homo sapiens (Human), UniProt P15056, V600E); assay: Kinase panel screening; details: read-out: % inhibition rate
Text: as §1

BTK = BTK (Homo sapiens (Human), UniProt Q06187); assay: Kinase panel screening; details: read-out: % inhibition rate
Text: as §1

c-Kit = c-Kit (Homo sapiens (Human), UniProt P10721); assay: Kinase panel screening; details: read-out: % inhibition rate
Text: as §1

c-MET = c-MET (Homo sapiens (Human), UniProt P08581); assay: Kinase panel screening; details: read-out: % inhibition rate
Text: as §1

c-Src = c-Src (Homo sapiens (Human), UniProt P12931); assay: Kinase panel screening; details: read-out: % inhibition rate
Sequence of c-Src (P12931 whole entry, looked up, species assumed): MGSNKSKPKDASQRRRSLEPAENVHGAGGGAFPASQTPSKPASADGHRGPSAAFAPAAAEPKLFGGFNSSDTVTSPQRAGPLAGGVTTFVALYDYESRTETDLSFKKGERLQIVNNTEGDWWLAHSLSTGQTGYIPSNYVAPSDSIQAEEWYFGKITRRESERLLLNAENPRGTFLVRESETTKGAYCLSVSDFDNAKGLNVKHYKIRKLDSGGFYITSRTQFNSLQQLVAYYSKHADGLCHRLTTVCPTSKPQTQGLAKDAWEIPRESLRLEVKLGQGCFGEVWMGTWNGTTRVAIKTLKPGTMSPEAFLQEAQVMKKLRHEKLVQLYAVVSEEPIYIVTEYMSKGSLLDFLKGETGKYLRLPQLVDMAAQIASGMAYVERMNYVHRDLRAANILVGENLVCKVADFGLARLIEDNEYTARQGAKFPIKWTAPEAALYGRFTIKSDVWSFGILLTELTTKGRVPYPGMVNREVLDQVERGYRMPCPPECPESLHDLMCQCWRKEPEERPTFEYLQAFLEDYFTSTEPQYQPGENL
Text: as §1

CDK1/cyclinB = CDK1/cyclinB (Homo sapiens (Human), UniProt P06493); assay: Kinase panel screening; details: read-out: % inhibition rate
Text: as §1

EGFR = EGFR (Homo sapiens (Human), UniProt P00533); assay: Kinase panel screening; details: read-out: % inhibition rate
Text: as §1

ERK1 = ERK1 (Homo sapiens (Human), UniProt P27361); assay: Kinase panel screening; details: read-out: % inhibition rate
Sequence of ERK1 (P27361 whole entry, species assumed): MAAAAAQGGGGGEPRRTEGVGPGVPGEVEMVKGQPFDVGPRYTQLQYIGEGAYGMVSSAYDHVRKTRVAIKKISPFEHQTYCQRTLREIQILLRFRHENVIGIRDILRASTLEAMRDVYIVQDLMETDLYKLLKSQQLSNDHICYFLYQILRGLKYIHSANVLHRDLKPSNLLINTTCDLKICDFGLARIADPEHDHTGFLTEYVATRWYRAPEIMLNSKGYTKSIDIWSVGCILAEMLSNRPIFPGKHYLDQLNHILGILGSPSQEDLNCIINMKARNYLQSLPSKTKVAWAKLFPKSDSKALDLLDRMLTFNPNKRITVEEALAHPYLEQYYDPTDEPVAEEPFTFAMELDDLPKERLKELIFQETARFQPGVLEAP
Text: as §1

FGFR3 = FGFR3 (Homo sapiens (Human), UniProt P22607); assay: Kinase panel screening; details: read-out: % inhibition rate
Text: as §1

FLT1/VEGFR1 = FLT1/VEGFR1 (Homo sapiens (Human), UniProt P17948); assay: Kinase panel screening; details: read-out: % inhibition rate
Text: as §1

FLT3 [2] = biological target: T1, FLT3; assay: Kinase panel screening; details: read-out: % inhibition rate
Text: as §1

IGFIR = IGFIR (Homo sapiens (Human), UniProt P08069); assay: Kinase panel screening; details: read-out: % inhibition rate
Text: as §1

JAK3 = JAK3 (Homo sapiens (Human), UniProt P52333); assay: Kinase panel screening; details: read-out: % inhibition rate
Sequence of JAK3 (P52333 whole entry, species assumed): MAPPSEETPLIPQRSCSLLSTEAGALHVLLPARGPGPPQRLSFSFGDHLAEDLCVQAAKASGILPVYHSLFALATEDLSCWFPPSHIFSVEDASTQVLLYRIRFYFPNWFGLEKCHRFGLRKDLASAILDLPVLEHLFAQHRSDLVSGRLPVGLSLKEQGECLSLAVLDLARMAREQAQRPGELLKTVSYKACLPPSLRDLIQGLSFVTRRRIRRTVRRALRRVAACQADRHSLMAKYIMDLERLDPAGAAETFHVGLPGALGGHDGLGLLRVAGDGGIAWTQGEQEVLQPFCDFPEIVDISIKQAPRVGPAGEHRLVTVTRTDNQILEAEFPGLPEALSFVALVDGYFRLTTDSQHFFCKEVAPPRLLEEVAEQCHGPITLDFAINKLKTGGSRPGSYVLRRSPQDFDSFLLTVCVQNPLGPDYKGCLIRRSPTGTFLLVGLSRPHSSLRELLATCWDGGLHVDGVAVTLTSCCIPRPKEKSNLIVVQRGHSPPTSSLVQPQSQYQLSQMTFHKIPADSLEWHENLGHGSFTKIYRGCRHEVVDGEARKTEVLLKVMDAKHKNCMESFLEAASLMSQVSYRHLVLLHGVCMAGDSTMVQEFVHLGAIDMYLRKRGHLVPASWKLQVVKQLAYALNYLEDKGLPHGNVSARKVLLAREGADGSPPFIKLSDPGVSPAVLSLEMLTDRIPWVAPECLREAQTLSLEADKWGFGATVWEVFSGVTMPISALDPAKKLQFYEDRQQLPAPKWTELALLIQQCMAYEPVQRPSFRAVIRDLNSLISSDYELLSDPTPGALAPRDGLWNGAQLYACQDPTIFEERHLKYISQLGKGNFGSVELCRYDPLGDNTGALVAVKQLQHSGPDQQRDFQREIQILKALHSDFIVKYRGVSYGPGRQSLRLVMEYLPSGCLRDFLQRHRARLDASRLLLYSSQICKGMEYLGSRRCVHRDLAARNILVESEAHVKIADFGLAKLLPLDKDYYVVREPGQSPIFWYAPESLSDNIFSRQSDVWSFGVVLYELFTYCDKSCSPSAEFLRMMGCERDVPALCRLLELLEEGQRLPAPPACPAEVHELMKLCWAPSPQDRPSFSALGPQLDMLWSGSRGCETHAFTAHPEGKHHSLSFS
Text: as §1

JNK3 = JNK3 (Homo sapiens (Human), UniProt P53779); assay: Kinase panel screening; details: read-out: % inhibition rate
Sequence of JNK3 (P53779 whole entry, species assumed): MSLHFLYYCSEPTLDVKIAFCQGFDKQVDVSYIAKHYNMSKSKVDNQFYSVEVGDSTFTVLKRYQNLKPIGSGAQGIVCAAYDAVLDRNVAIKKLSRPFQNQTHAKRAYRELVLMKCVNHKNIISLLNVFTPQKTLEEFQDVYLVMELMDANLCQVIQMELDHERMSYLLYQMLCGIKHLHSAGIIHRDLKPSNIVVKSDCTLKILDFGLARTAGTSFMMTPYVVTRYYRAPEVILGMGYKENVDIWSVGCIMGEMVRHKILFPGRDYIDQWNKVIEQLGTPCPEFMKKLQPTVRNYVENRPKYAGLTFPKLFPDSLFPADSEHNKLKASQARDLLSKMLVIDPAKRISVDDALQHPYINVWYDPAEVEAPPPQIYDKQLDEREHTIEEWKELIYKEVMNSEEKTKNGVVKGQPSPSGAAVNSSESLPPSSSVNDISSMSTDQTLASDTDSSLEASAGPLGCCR
Text: as §1

LYN = LYN (Homo sapiens (Human), UniProt P07948); assay: Kinase panel screening; details: read-out: % inhibition rate
Text: as §1

MEK1 = MEK1 (Homo sapiens (Human), UniProt Q02750); assay: Kinase panel screening; details: read-out: % inhibition rate
Text: as §1

P38a/MAPK14 = P38a/MAPK14 (Homo sapiens (Human), UniProt Q16539); assay: Kinase panel screening; details: read-out: % inhibition rate
Text: as §1

PKA = PKA (Homo sapiens (Human), UniProt P17612); assay: Kinase panel screening; details: read-out: % inhibition rate
Text: as §1

RAFI = RAFI (Homo sapiens (Human), UniProt P04049); assay: Kinase panel screening; details: read-out: % inhibition rate
Text: as §1

RON/MSTIR = RON/MSTIR (Homo sapiens (Human), UniProt Q04912); assay: Kinase panel screening; details: read-out: % inhibition rate
Text: as §1

ROS/ROS1 = ROS/ROS1 (Homo sapiens (Human), UniProt P08922); assay: Kinase panel screening; details: read-out: % inhibition rate
Text: as §1

T1 sequence (P36888 27-993): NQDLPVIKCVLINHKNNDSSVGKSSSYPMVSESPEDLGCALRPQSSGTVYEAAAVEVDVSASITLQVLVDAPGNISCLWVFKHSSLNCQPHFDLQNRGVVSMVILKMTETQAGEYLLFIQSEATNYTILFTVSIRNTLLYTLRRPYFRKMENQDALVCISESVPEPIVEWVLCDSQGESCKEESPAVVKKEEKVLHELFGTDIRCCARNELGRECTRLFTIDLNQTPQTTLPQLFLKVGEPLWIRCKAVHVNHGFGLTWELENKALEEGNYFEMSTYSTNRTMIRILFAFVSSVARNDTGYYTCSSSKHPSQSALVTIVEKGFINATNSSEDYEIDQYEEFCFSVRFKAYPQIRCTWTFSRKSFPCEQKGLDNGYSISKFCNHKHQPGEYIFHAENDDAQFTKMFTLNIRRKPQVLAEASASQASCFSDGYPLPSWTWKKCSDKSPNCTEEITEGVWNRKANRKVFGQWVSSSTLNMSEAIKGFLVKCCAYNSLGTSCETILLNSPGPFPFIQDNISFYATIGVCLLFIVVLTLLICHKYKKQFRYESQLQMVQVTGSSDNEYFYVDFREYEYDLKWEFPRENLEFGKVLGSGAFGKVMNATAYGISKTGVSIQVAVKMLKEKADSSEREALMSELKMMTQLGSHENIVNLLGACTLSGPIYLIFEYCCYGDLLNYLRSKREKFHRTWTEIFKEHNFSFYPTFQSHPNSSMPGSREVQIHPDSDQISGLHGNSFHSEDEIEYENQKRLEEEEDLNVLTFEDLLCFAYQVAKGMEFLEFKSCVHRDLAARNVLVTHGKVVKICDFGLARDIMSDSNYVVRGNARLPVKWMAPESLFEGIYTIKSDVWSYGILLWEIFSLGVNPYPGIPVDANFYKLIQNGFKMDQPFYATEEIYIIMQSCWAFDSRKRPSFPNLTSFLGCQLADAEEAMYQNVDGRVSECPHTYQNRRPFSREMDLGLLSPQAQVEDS

Cc1oncc1C(=O)Nc1ccc2[nH]c(-c3cc(N4CCOCC4)cc(C(F)(F)F)c3)nc2c1 [Compound 5b, 5-methyl-N-(2-(3-morpholino-5-(trifluoromethyl)phenyl)-1H-benz[d]imidazol-5-yl)isoxazole-4-carboxamide]
IC50 (FLT3 [1]; FLT3 enzyme activity, read-out: FLT3 (IC50)): 3 to 10 µM | IC50 (FLT3 [1]; FLT3 kinase activity, read-out: IC50 against FLT3): 7.94 µM | inhibition at 10 µM (ABL1): 0% | inhibition at 10 µM (CDK2/cyclin E): 0% | inhibition at 10 µM (FMS): 0% | inhibition at 10 µM (GSK3b): 2.8% | inhibition at 10 µM (KDR/VEGFR2): 0% | inhibition at 10 µM (LCK): 0% | inhibition at 10 µM (MTOR/FRAP1): 0% | inhibition at 10 µM (PLK1): 2.86% | inhibition at 10 µM (SYK): 2.18% | inhibition at 10 µM (AKT1): 10.9% | inhibition at 10 µM (ALK): 0% | inhibition at 10 µM (Aurora A): 6.4% | inhibition at 10 µM (BRAF): 0% | inhibition at 10 µM (BRAF (V599E)): 25.2% | inhibition at 10 µM (BTK): 19.3% | inhibition at 10 µM (c-Kit): 0% | inhibition at 10 µM (c-MET): 0% | inhibition at 10 µM (c-Src): 0% | inhibition at 10 µM (CDK1/cyclinB): 2.76% | inhibition at 10 µM (EGFR): 0% | inhibition at 10 µM (ERK1): 0% | inhibition at 10 µM (FGFR3): 0% | inhibition at 10 µM (FLT1/VEGFR1): 0% | inhibition at 10 µM (FLT3 [2]): 73% | inhibition at 10 µM (IGFIR): 0% | inhibition at 10 µM (JAK3): 0.94% | inhibition at 10 µM (JNK3): 0% | inhibition at 10 µM (LYN): 0% | inhibition at 10 µM (MEK1): 0% | inhibition at 10 µM (P38a/MAPK14): 0% | inhibition at 10 µM (PKA): 2.38% | inhibition at 10 µM (RAFI): 15.7% | inhibition at 10 µM (RON/MSTIR): 0% | inhibition at 10 µM (ROS/ROS1): 7.4%
